Reference: patent publication US20040002141A1, “Methods and compositions for propagating vectors containing toxic cDNAs and ion channel assay systems” (priority 2002, published 2004)

Assays:
MEC-4d and MEC-2 = target: T1, MEC-4d and MEC-2 (Caenorhabditis elegans, UniProt P24612, A713T); test: Amiloride dose-response, two-electrode voltage clamp in Xenopus oocytes co-expressing MEC-4d and MEC-2; format: cell-based; settings: in the absence of MEC-10d; without MEC-2(114-363)
T1 construct: Plasmids containing full-length degenerin cDNAs are toxic to standard E. coli strains; expressed in transfected cells; host or cells: Xenopus laevis oocytes injected with cRNA
Experimental: (§1) Oocyte Expression & Electrophysiology. Capped RNAs (“cRNAs”) were synthesized (T7 mMESSAGE mMACHINE™ kit, Ambion, Austin, Tex.), purified, and quantified spectroscopically. Xenopus laevis oocytes were harvested and injected with 10 ng of each cRNA, except for oocytes co-expressing only MEC-4d and MEC-2(114-363), which were injected with 10 ng of the former and 20 ng of the latter. Oocytes were maintained in L-15 oocyte medium containing 100 μg/mL gentamicin (Cell & Molecular Technologies, Philipsburg, N.J.) at 16-18° C.
(§2) Membrane potential and current were measured 4-10 days after cRNA injection using a two-electrode voltage clamp (Warner OC-725C) at 22-25° C. […]
(§3) Analog signals were filtered at 200 Hz and sampled at 1-2 kHz (ITC-16, Instrutech, Great Neck, N.Y.); a 60 Hz notch filter was used to minimize line noise. Average values are reported as mean±S.E.M. Curves were fit by a nonlinear least-squares method (IgorPro 4.01, Wavemetrics, Oswego, Oreg.); the standard deviation measured at each point provided the weighting function. […] Relative permeabilities were calculated from the difference in reversal potential measured in solutions containing Na^+ and each test ion using the Goldman-Hodgkin-Katz equation (Hille, 2001, In: Ion Channels of Excitable Membranes, Sinaur Associates, Inc., Sunderland, Mass.).

[1] = target: T2, MEC-4d, MEC-10d and MEC-2 (Caenorhabditis elegans, UniProt P24612+P34886, A673T/A713T); test: Amiloride dose-response, two-electrode voltage clamp in Xenopus oocytes co-expressing MEC-4d, MEC-10d and MEC-2; format: cell-based; settings: in the presence of MEC-10d
T2 construct: Plasmids containing full-length degenerin cDNAs are toxic to standard E. coli strains; expressed in transfected cells; host or cells: Xenopus laevis oocytes injected with cRNA
Experimental: as §1, §2, §3

αβγENaC channels = target: T3, αβγENaC channels (Rattus norvegicus, UniProt P37089+P37090+P37091); settings: McNicholas and Canessa, 1997; cited from earlier work
T3 sequence (P37089 1-698): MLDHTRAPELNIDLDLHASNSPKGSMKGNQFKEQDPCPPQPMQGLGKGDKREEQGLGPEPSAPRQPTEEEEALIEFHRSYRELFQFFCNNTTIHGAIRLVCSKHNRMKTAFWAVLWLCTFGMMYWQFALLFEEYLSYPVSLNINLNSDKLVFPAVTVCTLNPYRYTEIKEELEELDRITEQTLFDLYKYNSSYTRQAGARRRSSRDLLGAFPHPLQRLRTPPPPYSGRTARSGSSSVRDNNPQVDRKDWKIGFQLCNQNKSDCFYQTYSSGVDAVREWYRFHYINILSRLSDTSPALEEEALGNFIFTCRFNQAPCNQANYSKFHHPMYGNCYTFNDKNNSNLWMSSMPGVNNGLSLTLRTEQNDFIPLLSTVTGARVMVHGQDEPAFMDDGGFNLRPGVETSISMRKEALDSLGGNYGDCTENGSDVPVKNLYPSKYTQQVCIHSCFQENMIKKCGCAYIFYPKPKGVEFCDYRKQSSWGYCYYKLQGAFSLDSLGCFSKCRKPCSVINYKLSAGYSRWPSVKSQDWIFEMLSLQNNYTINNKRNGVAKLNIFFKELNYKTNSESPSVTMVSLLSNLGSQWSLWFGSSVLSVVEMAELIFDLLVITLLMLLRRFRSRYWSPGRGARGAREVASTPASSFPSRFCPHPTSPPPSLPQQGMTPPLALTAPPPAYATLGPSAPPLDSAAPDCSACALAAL
T3 sequence (P37090 1-638): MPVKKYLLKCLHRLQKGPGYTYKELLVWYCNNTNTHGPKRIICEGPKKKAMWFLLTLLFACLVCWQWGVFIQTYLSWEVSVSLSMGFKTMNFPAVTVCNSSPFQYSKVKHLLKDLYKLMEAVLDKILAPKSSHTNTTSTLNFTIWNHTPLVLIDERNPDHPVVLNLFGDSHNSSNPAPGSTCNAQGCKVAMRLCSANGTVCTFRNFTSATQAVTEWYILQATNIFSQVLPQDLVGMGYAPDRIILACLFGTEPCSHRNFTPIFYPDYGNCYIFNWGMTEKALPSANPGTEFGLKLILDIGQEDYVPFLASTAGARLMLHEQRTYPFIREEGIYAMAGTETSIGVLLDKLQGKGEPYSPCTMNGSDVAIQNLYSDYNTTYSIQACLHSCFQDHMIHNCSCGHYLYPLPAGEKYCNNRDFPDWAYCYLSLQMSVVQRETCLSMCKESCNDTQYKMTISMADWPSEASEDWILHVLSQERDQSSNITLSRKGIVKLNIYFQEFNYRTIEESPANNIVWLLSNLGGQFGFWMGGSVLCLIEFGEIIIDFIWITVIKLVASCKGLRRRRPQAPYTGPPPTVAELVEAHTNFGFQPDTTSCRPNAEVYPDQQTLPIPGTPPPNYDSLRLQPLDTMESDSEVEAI
T3 sequence (P37091 1-650): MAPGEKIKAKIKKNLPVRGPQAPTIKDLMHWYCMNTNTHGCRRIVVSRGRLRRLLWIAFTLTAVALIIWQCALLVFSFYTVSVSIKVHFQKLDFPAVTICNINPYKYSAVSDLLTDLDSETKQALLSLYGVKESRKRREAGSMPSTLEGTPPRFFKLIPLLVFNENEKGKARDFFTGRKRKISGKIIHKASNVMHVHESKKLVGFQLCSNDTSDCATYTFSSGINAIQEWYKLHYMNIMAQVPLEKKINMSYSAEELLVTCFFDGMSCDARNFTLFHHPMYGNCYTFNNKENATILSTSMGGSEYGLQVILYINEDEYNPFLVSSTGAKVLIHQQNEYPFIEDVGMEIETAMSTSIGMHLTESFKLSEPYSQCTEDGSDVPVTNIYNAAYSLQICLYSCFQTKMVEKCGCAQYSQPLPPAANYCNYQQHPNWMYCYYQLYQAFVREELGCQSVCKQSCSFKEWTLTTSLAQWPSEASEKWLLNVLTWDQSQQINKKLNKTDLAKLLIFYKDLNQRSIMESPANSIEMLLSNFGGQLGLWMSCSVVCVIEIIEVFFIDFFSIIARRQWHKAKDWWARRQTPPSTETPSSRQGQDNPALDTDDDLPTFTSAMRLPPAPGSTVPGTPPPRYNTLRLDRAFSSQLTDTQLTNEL

UNC-105d = settings: García-Añoveros et al., 1998; cited from earlier work

T2 sequence (P34886 whole entry A673T): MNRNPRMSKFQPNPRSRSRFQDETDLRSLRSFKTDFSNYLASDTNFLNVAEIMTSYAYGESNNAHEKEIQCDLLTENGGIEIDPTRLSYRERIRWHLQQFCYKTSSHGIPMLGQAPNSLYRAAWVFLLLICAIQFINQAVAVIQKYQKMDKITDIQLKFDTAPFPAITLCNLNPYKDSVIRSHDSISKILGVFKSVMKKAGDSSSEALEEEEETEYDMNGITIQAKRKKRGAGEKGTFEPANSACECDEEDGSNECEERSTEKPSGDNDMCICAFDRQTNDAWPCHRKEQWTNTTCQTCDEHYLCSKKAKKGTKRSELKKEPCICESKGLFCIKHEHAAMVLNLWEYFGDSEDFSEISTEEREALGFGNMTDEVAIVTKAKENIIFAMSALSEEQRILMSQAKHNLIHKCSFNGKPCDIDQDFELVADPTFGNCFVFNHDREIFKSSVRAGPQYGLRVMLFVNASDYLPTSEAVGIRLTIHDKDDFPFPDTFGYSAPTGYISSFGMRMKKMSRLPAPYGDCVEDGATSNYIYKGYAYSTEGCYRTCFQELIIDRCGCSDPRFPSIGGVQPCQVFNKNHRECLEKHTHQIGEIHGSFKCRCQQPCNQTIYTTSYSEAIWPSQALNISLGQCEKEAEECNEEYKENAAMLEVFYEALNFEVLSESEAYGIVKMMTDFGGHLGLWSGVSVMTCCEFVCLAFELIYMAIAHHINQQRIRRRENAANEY
T2 sequence (P24612 whole entry A713T): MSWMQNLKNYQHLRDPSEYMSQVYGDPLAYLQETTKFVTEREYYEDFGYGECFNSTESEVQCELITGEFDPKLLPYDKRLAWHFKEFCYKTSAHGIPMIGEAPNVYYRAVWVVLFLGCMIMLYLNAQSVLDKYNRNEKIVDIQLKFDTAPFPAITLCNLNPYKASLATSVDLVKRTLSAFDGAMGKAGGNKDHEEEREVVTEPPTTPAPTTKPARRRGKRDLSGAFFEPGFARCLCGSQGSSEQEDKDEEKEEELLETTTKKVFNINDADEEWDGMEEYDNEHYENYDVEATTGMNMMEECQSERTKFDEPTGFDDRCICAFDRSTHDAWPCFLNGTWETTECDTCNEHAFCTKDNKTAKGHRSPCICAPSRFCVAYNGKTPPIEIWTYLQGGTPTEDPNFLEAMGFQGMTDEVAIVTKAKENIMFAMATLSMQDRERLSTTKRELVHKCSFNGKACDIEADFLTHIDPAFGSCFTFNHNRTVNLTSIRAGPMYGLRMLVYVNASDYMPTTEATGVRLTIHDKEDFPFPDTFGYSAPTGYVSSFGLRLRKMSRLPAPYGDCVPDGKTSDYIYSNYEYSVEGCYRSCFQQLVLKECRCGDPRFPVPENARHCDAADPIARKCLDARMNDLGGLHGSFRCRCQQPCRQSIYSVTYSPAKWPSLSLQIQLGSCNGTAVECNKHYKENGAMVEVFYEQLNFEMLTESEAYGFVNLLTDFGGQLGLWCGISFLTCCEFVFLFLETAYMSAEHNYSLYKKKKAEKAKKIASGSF
T1 sequence (Q27433 whole entry): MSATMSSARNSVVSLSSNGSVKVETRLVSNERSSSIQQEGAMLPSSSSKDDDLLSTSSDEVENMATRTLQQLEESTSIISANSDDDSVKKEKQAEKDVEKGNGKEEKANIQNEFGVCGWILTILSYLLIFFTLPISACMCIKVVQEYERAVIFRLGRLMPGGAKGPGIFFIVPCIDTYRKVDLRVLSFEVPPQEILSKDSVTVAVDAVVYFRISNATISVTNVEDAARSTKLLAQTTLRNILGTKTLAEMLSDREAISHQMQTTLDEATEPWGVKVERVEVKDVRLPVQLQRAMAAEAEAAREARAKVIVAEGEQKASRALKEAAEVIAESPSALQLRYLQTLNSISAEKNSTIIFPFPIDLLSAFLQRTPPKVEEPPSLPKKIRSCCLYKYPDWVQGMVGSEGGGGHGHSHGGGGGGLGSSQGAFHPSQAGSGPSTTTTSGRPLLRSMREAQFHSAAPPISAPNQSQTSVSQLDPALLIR
T1 sequence (P24612 whole entry A713T): as the sequence (P24612 whole entry A713T) above

N=C(N)NC(=O)c1nc(Cl)c(N)nc1N [amiloride]
δ, voltage-dependence of amiloride blockade (Woodhull model fit) (MEC-4d and MEC-2): 0.63
δ, voltage-dependence of amiloride blockade (Woodhull model fit) [1]: 0.52
δ, voltage-dependence of amiloride blockade (αβγENaC channels): 0.15
δ, voltage-dependence of amiloride blockade (UNC-105d): 0.65-0.68
